According to ChEMBL document CHEMBL6109125, “A New Protractor Potentiates Glucagon-Like Peptide 1 with Slow-Release Depot and Long-Term Action” (J Med Chem, 2025):
The source made the active and inactive calls. No cut-off for these calls is given here.

Assays:
Albumin = Albumin (Homo sapiens, UniProt P02768); test: Binding affinity to human serum albumin immobilized on AR2G biosensor assessed as dissociation constant incubated for 3 mins by BLI assay; assay type: ADME
[1] = molecular target: T1, Glucagon-like peptide 1 receptor (Homo sapiens, UniProt P43220); test: Agonist activity at GLP-1R (unknown origin) expressed in HEK293 cells co-expressing CRE-Luc assessed as increase in intracellular cAMP accumulation in presence of 10% FBS by luciferase based assay; assay type: functional, cell-based; conditions: read-out: EC50
T1 sequence (P43220 whole entry): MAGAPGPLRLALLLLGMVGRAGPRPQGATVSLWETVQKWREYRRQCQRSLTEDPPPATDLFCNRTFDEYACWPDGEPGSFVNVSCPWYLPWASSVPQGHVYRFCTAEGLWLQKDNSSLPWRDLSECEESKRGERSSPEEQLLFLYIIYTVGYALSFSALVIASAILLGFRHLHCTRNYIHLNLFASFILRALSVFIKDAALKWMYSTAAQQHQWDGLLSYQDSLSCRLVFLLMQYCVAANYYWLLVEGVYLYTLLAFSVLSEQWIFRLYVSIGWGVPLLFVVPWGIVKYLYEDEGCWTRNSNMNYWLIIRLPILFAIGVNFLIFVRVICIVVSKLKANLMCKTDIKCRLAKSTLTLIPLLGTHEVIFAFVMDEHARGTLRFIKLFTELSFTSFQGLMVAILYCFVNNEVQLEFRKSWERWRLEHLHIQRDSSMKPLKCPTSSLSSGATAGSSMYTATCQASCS

[2] = molecular target: T1, Glucagon-like peptide 1 receptor; test: Agonist activity at GLP-1R (unknown origin) expressed in HEK293 cells co-expressing CRE-Luc assessed as increase in intracellular cAMP accumulation by luciferase based assay; assay type: functional, cell-based; conditions: read-out: EC50
[3] = molecular target: T1, Glucagon-like peptide 1 receptor; test: Agonist activity at GLP-1R (unknown origin) expressed in HEK293 cells co-expressing CRE-Luc assessed as increase in intracellular cAMP accumulation in presence of 2% HSA by luciferase based assay; assay type: functional, cell-based; conditions: read-out: EC50
[4] = Selectivity ratio of EC50 for agonist activity at GLP-1R (unknown origin) expressed in HEK293 cells co-expressing CRE-Luc assessed as increase in intracellular cAMP accumulation in presence of 2% HSA to EC50 for agonist activity at GLP-1R (unknown origin) expressed in HEK293 cells co-expressing CRE-Luc assessed as increase in intracellular cAMP accumulation; assay type: cell-based
[5] = Apparent volume of distribution in BALB/c mouse at 0.5 mg/kg, iv measured up to 48 hrs by LC-MS/MS analysis; assay type: ADME, organism-based; conditions: in vivo, read-out: Vz
[6] = Apparent volume of distribution in Sprague-Dawley rat at 1 mg/kg, iv measured up to 48 hrs by LC-MS/MS analysis; assay type: ADME, organism-based; conditions: in vivo, read-out: Vz
Mus musculus [7] = test: Anti-hyperglycemic activity in type-2 diabetes db/db mouse assessed as regulation of blood glucose level at 3 to 600 nmol/kg, sc measured up to 96 hrs; assay type: functional, organism-based
Mus musculus [8] = test: Anti-hyperglycemic activity in 16 hr-fasted type-2 diabetes db/db mouse assessed as homeostasis of blood glucose level at 100 nmol/kg, sc pretreated for 0.5 hrs followed by glucose administration measured for 2 hrs; assay type: functional, organism-based; conditions: time 2.5 hrs
Mus musculus [9] = test: Anti-hyperglycemic activity in 16 hr-fasted type-2 diabetes db/db mouse at 100 nmol/kg, sc pretreated for 0.5 hrs followed by glucose administration measured for 2 hrs by OGTT method; assay type: functional, organism-based; conditions: time 2.5 hrs
Mus musculus [10] = test: Anti-hyperglycemic activity in well-fed type-2 diabetes db/db mouse assessed as blood glucose level at 100 nmol/kg, sc administered on every 48 hrs; assay type: functional
[11] = Stability in Sprague-Dawley rat plasma assessed as compound remaining measured after 96 hrs by RP-HPLC analysis; assay type: ADME, cell-free; conditions: read-out: Stability
[12] = Stability in Sprague-Dawley rat plasma assessed as drug degradation by measuring half life measured after 96 hrs by RP-HPLC analysis; assay type: ADME, cell-free

Albumin, sequence (P02768 whole entry): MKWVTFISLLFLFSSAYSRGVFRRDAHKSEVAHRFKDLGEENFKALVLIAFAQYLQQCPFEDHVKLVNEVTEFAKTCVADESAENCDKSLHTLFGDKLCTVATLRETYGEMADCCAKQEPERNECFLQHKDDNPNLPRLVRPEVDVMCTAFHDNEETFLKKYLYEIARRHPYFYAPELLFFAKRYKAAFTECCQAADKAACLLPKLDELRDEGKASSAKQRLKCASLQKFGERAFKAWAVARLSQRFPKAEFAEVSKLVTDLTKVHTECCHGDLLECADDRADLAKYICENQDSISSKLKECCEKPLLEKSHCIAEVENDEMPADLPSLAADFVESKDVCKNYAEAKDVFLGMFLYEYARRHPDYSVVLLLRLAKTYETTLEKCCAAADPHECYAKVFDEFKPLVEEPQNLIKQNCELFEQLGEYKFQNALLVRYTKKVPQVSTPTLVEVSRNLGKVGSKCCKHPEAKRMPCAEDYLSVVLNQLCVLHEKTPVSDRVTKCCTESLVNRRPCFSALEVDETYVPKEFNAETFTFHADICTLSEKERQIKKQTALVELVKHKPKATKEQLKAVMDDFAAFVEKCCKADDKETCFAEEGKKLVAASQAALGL

Row | EC50 [1] [pM] | EC50 [2] [pM] | EC50 [3] [pM] | Compound | Ratio EC50 [4] | also measured
1 |  |  |  | CCOc1ccc(Nc2ccc(/C(=C3C=C/C(=[N+](/CC)Cc4cccc(S(=O)(=O)[O-])c4)C=C/3C)c3ccc(N(CC)Cc4cccc(S(=O)(=O)O)c4)cc3C)cc2)cc1 [BRILLIANT BLUE G FREE ACID] |  | Kd (Albumin): 320000 pM
2 | 3.96 | 0.33 | 0.84 | CCOc1ccc(Nc2ccc(/C(=C3C=C/C(=[N+](\CC)Cc4cccc(S(=O)(=O)[O-])c4)C=C\3C)c3ccc(N(CC)Cc4cccc(S(=O)(=O)NCCCCCC(=O)NCCOCCOCCOCCOCCOCCOCCOCCOCCC(=O)NCCCC[C@H](NC(=O)[C@@H](NC(=O)[C@H](CC(C)C)NC(=O)[C@H](Cc5c[nH]c6ccccc56)NC(=O)[C@H](C)NC(=O)[C@@H](NC(=O)[C@H](Cc5ccccc5)NC(=O)[C@H](CCC(=O)O)NC(=O)[C@H](CCCCN)NC(=O)[C@H](C)NC(=O)[C@H](C)NC(=O)[C@H](CCC(N)=O)NC(=O)CNC(=O)[C@H](CCC(=O)O)NC(=O)[C@H](CC(C)C)NC(=O)[C@H](Cc5ccc(O)cc5)NC(=O)[C@H](CO)NC(=O)[C@H](CO)NC(=O)[C@@H](NC(=O)[C@H](CC(=O)O)NC(=O)[C@H](CO)NC(=O)[C@@H](NC(=O)[C@H](Cc5ccccc5)NC(=O)[C@@H](NC(=O)CNC(=O)[C@H](CCC(=O)O)NC(=O)[C@H](CO)NC(=O)[C@@H](N)Cc5c[nH]cn5)[C@@H](C)O)[C@@H](C)O)C(C)C)[C@@H](C)CC)C(C)C)C(=O)NCC(=O)N[C@@H](CCCNC(=N)N)C(N)=O)c4)cc3C)cc2)cc1 | 2.55 | 
3 |  |  |  | CC[C@H](C)[C@H](NC(=O)[C@H](Cc1ccccc1)NC(=O)[C@H](CCC(=O)O)NC(=O)[C@H](CCCCNC(=O)COCCOCCNC(=O)COCCOCCNC(=O)CC[C@H](NC(=O)CCCCCCCCCCCCCCCCC(=O)O)C(=O)O)NC(=O)[C@H](C)NC(=O)[C@H](C)NC(=O)[C@H](CCC(N)=O)NC(=O)CNC(=O)[C@H](CCC(=O)O)NC(=O)[C@H](CC(C)C)NC(=O)[C@H](Cc1ccc(O)cc1)NC(=O)[C@H](CO)NC(=O)[C@H](CO)NC(=O)[C@@H](NC(=O)[C@H](CC(=O)O)NC(=O)[C@H](CO)NC(=O)[C@@H](NC(=O)[C@H](Cc1ccccc1)NC(=O)[C@@H](NC(=O)CNC(=O)[C@H](CCC(=O)O)NC(=O)C(C)(C)NC(=O)[C@@H](N)Cc1cnc[nH]1)[C@@H](C)O)[C@@H](C)O)C(C)C)C(=O)N[C@@H](C)C(=O)N[C@@H](Cc1c[nH]c2ccccc12)C(=O)N[C@@H](CC(C)C)C(=O)N[C@H](C(=O)N[C@@H](CCCNC(=N)N)C(=O)NCC(=O)N[C@@H](CCCNC(=N)N)C(=O)NCC(=O)O)C(C)C |  | Vd [5]: 0.083 L/kg; Vd [6]: 0.163 L/kg; EC50 (Mus musculus [7]): 2 nmol/kg; Activity (Mus musculus [8]): Active; Activity (Mus musculus [9]): Active; Activity (Mus musculus [10]): <10 mM
4 | 16.1 | 62.8 | 84.2 | H-HGEGTFTSDVSSYLEGQAAREFIAWLVRGRG-NH2 | 1.34 | remaining at 96 h [11]: 0%; half-life [12]: 50 min
5 | 2.92 | 1.17 | 9.1 | CCOc1ccc(Nc2ccc(/C(=C3C=C/C(=[N+](\CC)Cc4cccc(S(=O)(=O)[O-])c4)C=C/3C)c3ccc(N(CC)Cc4cccc(S(=O)(=O)NCCCCCC(=O)N[C@@H](CCC(=O)NCCCC[C@H](NC(=O)[C@H](C)NC(=O)[C@H](C)NC(=O)[C@H](CCC(N)=O)NC(=O)CNC(=O)[C@H](CCC(=O)O)NC(=O)[C@H](CC(C)C)NC(=O)[C@H](Cc5ccc(O)cc5)NC(=O)[C@H](CO)NC(=O)[C@H](CO)NC(=O)[C@@H](NC(=O)[C@H](CC(=O)O)NC(=O)[C@H](CO)NC(=O)[C@@H](NC(=O)[C@H](Cc5ccccc5)NC(=O)[C@@H](NC(=O)CNC(=O)[C@H](CCC(=O)O)NC(=O)C(C)(C)NC(=O)[C@@H](N)Cc5c[nH]cn5)[C@@H](C)O)[C@@H](C)O)C(C)C)C(=O)N[C@@H](CCC(=O)O)C(=O)N[C@@H](Cc5ccccc5)C(=O)N[C@H](C(=O)N[C@@H](C)C(=O)N[C@@H](Cc5c[nH]c6ccccc56)C(=O)N[C@@H](CC(C)C)C(=O)N[C@H](C(=O)N[C@@H](CCCNC(=N)N)C(=O)NCC(=O)N[C@@H](CCCNC(=N)N)C(=O)NCC(=O)O)C(C)C)[C@@H](C)CC)C(=O)O)c4)cc3C)cc2)cc1 |  | 
6 | 1.16 | 1.13 | 4.25 | CCOc1ccc(Nc2ccc(/C(=C3C=C/C(=[N+](\CC)Cc4cccc(S(=O)(=O)[O-])c4)C=C/3C)c3ccc(N(CC)Cc4cccc(S(=O)(=O)NCCCCCC(=O)N[C@@H](CS(=O)(=O)O)C(=O)NCCOCCOCC(=O)NCCCC[C@H](NC(=O)[C@H](C)NC(=O)[C@H](C)NC(=O)[C@H](CCC(N)=O)NC(=O)CNC(=O)[C@H](CCC(=O)O)NC(=O)[C@H](CC(C)C)NC(=O)[C@H](Cc5ccc(O)cc5)NC(=O)[C@H](CO)NC(=O)[C@H](CO)NC(=O)[C@@H](NC(=O)[C@H](CC(=O)O)NC(=O)[C@H](CO)NC(=O)[C@@H](NC(=O)[C@H](Cc5ccccc5)NC(=O)[C@@H](NC(=O)CNC(=O)[C@H](CCC(=O)O)NC(=O)C(C)(C)NC(=O)[C@@H](N)Cc5c[nH]cn5)[C@@H](C)O)[C@@H](C)O)C(C)C)C(=O)N[C@@H](CCC(=O)O)C(=O)N[C@@H](Cc5ccccc5)C(=O)N[C@H](C(=O)N[C@@H](C)C(=O)N[C@@H](Cc5c[nH]c6ccccc56)C(=O)N[C@@H](CC(C)C)C(=O)N[C@H](C(=O)N[C@@H](CCCNC(=N)N)C(=O)NCC(=O)N[C@@H](CCCNC(=N)N)C(=O)NCC(=O)O)C(C)C)[C@@H](C)CC)c4)cc3C)cc2)cc1 |  | 
7 | 2.93 | 0.79 | 3.94 | CCOc1ccc(Nc2ccc(/C(=C3C=C/C(=[N+](\CC)Cc4cccc(S(=O)(=O)[O-])c4)C=C/3C)c3ccc(N(CC)Cc4cccc(S(=O)(=O)NCCCCCC(=O)NCCOCCOCC(=O)NCCOCCOCC(=O)NCCCC[C@H](NC(=O)[C@H](C)NC(=O)[C@H](C)NC(=O)[C@H](CCC(N)=O)NC(=O)CNC(=O)[C@H](CCC(=O)O)NC(=O)[C@H](CC(C)C)NC(=O)[C@H](Cc5ccc(O)cc5)NC(=O)[C@H](CO)NC(=O)[C@H](CO)NC(=O)[C@@H](NC(=O)[C@H](CC(=O)O)NC(=O)[C@H](CO)NC(=O)[C@@H](NC(=O)[C@H](Cc5ccccc5)NC(=O)[C@@H](NC(=O)CNC(=O)[C@H](CCC(=O)O)NC(=O)C(C)(C)NC(=O)[C@@H](N)Cc5c[nH]cn5)[C@@H](C)O)[C@@H](C)O)C(C)C)C(=O)N[C@@H](CCC(=O)O)C(=O)N[C@@H](Cc5ccccc5)C(=O)N[C@H](C(=O)N[C@@H](C)C(=O)N[C@@H](Cc5c[nH]c6ccccc56)C(=O)N[C@@H](CC(C)C)C(=O)N[C@H](C(=O)N[C@@H](CCCNC(=N)N)C(=O)NCC(=O)N[C@@H](CCCNC(=N)N)C(=O)NCC(=O)O)C(C)C)[C@@H](C)CC)c4)cc3C)cc2)cc1 |  | 
8 | 4.08 | 1.12 | 8.86 | CCOc1ccc(Nc2ccc(/C(=C3C=C/C(=[N+](\CC)Cc4ccc(S(=O)(=O)[O-])cc4)C=C/3C)c3ccc(N(CC)Cc4cccc(S(=O)(=O)NCCCCCC(=O)N[C@H](C(=O)O)C(=O)NCCCC[C@H](NC(=O)[C@H](C)NC(=O)[C@H](C)NC(=O)[C@H](CCC(N)=O)NC(=O)CNC(=O)[C@H](CCC(=O)O)NC(=O)[C@H](CC(C)C)NC(=O)[C@H](Cc5ccc(O)cc5)NC(=O)[C@H](CO)NC(=O)[C@H](CO)NC(=O)[C@@H](NC(=O)[C@H](CC(=O)O)NC(=O)[C@H](CO)NC(=O)[C@@H](NC(=O)[C@H](Cc5ccccc5)NC(=O)[C@@H](NC(=O)CNC(=O)[C@H](CCC(=O)O)NC(=O)C(C)(C)NC(=O)[C@@H](N)Cc5c[nH]cn5)[C@@H](C)O)[C@@H](C)O)C(C)C)C(=O)N[C@@H](CCC(=O)O)C(=O)N[C@@H](Cc5ccccc5)C(=O)N[C@H](C(=O)N[C@@H](C)C(=O)N[C@@H](Cc5c[nH]c6ccccc56)C(=O)N[C@@H](CC(C)C)C(=O)N[C@H](C(=O)N[C@@H](CCCNC(=N)N)C(=O)NCC(=O)N[C@@H](CCCNC(=N)N)C(=O)NCC(=O)O)C(C)C)[C@@H](C)CC)c4)cc3C)cc2)cc1 | 7.91 | 
